The source of these data is patent publication US10632125B2, “MTH1 inhibitors for treatment of inflammatory and autoimmune conditions” (THOMAS HELLEDAYS STIFTELSE FÖR MEDICINSK FORSKNING, priority 2014, dated 2020).

The target in this assay is MTH1 (Homo sapiens, UniProt P36639). As to the kind of experiment: MTH1 enzymatic assay (malachite green, coupled to pyrophosphatase). The note with it: dGTP 100 μM, MTH1 6 nM; 96- or 384-well format; read-out: IC50. The format is biochemical.
By IC50 is commonly meant the point on the concentration scale where inhibition reaches its midpoint. `CNc1cc(C#Cc2ccccc2)nc(N)n1` [Example 626, 4-N-methyl-6-(2-phenylethynyl)pyrimidine-2,4-diamine]: the IC50 is below 200 nM.
With `Cc1c(Cl)cccc1-c1cc(NCCNc2ccc3c(=O)[nH]cnc3c2)nc(N)n1` [Example 632, 7-[2-[[2-amino-6-(3-chloro-2-methyl-phenyl)pyrimidin-4-yl]amino]ethylamino]-3H-quinazolin-4-one], the 50% inhibitory concentration (IC50) is below 200 nM.
Take `Cc1c(Cl)cccc1-c1cc(NCCc2ccc(N)cc2)nc(N)n1` [Example 642, N4-[2-(4-aminophenyl)ethyl]-6-(3-chloro-2-methyl-phenyl)pyrimidine-2,4-diamine]: the half-inhibitory concentration (IC50) was below 200 nM.
For `Cc1c(Cl)cccc1-c1cc(NCCNS(=O)(=O)c2cccc(F)c2)nc(N)n1` [Example 660, N-[2-[[2-amino-6-(3-chloro-2-methyl-phenyl)pyrimidin-4-yl]amino]ethyl]-3-fluoro-benzenesulfonamide] the value was below 200 nM.
Regarding `Cc1c(Cl)cccc1-c1cc(NCCNC(=O)Nc2cccc(F)c2)nc(N)n1` [Example 663, 1-[2-[[2-amino-6-(3-chloro-2-methyl-phenyl)pyrimidin-4-yl]amino]ethyl]-3-(3-fluorophenyl)urea], the IC50 is below 200 nM.
Next, `Cc1c(Cl)cccc1-c1cc(NC2CN(c3ccc(S(N)(=O)=O)cc3)C2)nc(N)n1` [Example 667]: 2000 to 10000 nM.
Turning to `Cc1c(Cl)cccc1-c1cc(NCCCNC(=O)OC(C)(C)C)nc(N)n1` [Example 668, tert-butyl N-[3-[[2-amino-6-(3-chloro-2-methyl-phenyl)pyrimidin-4-yl]amino]propyl]carbamate], the half-maximal inhibitory concentration (IC50) was below 200 nM.
For `Cc1c(Cl)cccc1-c1cc(NCCCCc2ccccc2)nc(N)n1` [Example 680, 6-(3-chloro-2-methyl-phenyl)-N4-(4-phenylbutyl)pyrimidine-2,4-diamine] the value was below 200 nM.
In the case of `Cc1c(Cl)cccc1-c1cc(NCCC2=CCCCC2)nc(N)n1` [Example 681, 6-(3-chloro-2-methyl-phenyl)-N4-[2-(cyclohexen-1-yl)ethyl]pyrimidine-2,4-diamine], the IC50 was below 200 nM.
`C=CCCNc1cc(-c2cccc(Cl)c2C)nc(N)n1` [Example 682, N4-but-3-enyl-6-(3-chloro-2-methyl-phenyl)pyrimidine-2,4-diamine]: the IC50 was below 200 nM.
Turning to `Cc1c(Cl)cccc1-c1cc(NCCNc2cccc3c(S(=O)(=O)O)cccc23)nc(N)n1` [Example 683, 5-[2-[[2-amino-6-(3-chloro-2-methyl-phenyl)pyrimidin-4-yl]amino]ethylamino]naphthalene-1-sulfonic acid], the IC50 was below 200 nM.
In the case of `Cc1c(Cl)cccc1-c1cc(NCCOCC2CC2)nc(N)n1` [Example 684, 6-(3-chloro-2-methyl-phenyl)-N4-[2-(cyclopropylmethoxy)ethyl]pyrimidine-2,4-diamine], the IC50 is below 200 nM.
Consider `Cc1c(Cl)cccc1-c1cc(NCC=C(F)F)nc(N)n1` [Example 686, 6-(3-chloro-2-methyl-phenyl)-N4-(3,3-difluoroallyl)pyrimidine-2,4-diamine], for which the half-maximal inhibitory concentration (IC50) was below 200 nM.
`Cc1c(Cl)cccc1-c1cc(NCCC(F)(F)Br)nc(N)n1` [Example 687, N4-(3-bromo-3,3-difluoro-propyl)-6-(3-chloro-2-methyl-phenyl)pyrimidine-2,4-diamine]: the IC50 was below 200 nM.
On to `Cc1c(Cl)cccc1-c1cc(NCCSCCc2ccccc2)nc(N)n1` [Example 690, 6-(3-chloro-2-methylphenyl)-N4-{2-[(2-phenylethyl)sulfanyl]ethyl}pyrimidine-2,4-diamine], for which the IC50 was below 200 nM.
Next, `Cc1c(Cl)cccc1-c1cc(NCC[S+]([O-])CCc2ccccc2)nc(N)n1` (stereo not drawn) [Example 692, 6-(3-chloro-2-methyl-phenyl)-N4-[2-(2-phenylethylsulfinyl)ethyl]pyrimidine-2,4-diamine]: 2000 to 10000 nM.
For `Cc1cc(CSCCNc2cc(-c3cccc(Cl)c3C)nc(N)n2)no1` [Example 700, 6-(3-chloro-2-methyl-phenyl)-N4-[2-[(5-methylisoxazol-3-yl)methylsulfanyl]ethyl]pyrimidine-2,4-diamine] the value was below 200 nM; for `Cc1noc(C)c1CCNc1cc(-c2cccc(Cl)c2C)nc(N)n1` [Example 701, 6-(3-chloro-2-methyl-phenyl)-N4-[2-(3,5-dimethylisoxazol-4-yl)ethyl]pyrimidine-2,4-diamine], below 200 nM.
Turning to `CCCNc1cc(-c2cccc(Cl)c2C)nc(N)n1` [Example 702, 6-(3-chloro-2-methyl-phenyl)-N4-propyl-pyrimidine-2,4-diamine], the IC50 is below 200 nM.
Consider `CCCCNc1cc(-c2cccc(Cl)c2C)nc(N)n1` [Example 703, N4-butyl-6-(3-chloro-2-methyl-phenyl)pyrimidine-2,4-diamine], for which the IC50 was below 200 nM.
Next, `COCCNc1cc(-c2cccc(Cl)c2C)nc(N)n1` [Example 704, 6-(3-chloro-2-methyl-phenyl)-N4-(2-methoxyethyl)pyrimidine-2,4-diamine]: below 200 nM; `CCOCCCNc1cc(-c2cccc(Cl)c2C)nc(N)n1` [Example 705, 6-(3-chloro-2-methyl-phenyl)-N4-(3-ethoxypropyl)pyrimidine-2,4-diamine]: below 200 nM.
As to `Cc1c(Cl)cccc1-c1cc(NCC2CCOCC2)nc(N)n1` [Example 706, 6-(3-chloro-2-methyl-phenyl)-N4-(tetrahydropyran-4-ylmethyl)pyrimidine-2,4-diamine], the IC50 is below 200 nM.
Consider `Cc1c(Cl)cccc1-c1cc(NCC2CCCO2)nc(N)n1` (stereo not drawn) [Example 707, 6-(3-chloro-2-methyl-phenyl)-N4-(tetrahydrofuran-2-ylmethyl)pyrimidine-2,4-diamine], for which the half-inhibitory concentration (IC50) was below 200 nM.
In the case of `CC(C)=CCC/C(C)=C/CNc1cc(-c2cccc(Cl)c2C)nc(N)n1` [Example 708, 6-(3-chloro-2-methyl-phenyl)-N4-[(2E)-3,7-dimethylocta-2,6-dienyl]pyrimidine-2,4-diamine], the IC50 is below 200 nM.
On to `Cc1c(Cl)cccc1-c1cc(NCC(C)C)nc(N)n1` [Example 709, 6-(3-chloro-2-methyl-phenyl)-N4-isobutyl-pyrimidine-2,4-diamine], for which the 50% inhibitory concentration (IC50) was below 200 nM.
`Cc1c(Cl)cccc1-c1cc(NCCc2ccccc2)nc(N)n1` [Example 713, 6-(3-chloro-2-methyl-phenyl)-N4-(2-phenylethyl)pyrimidine-2,4-diamine]: the IC50 was below 200 nM.
As to `Cc1c(Cl)cccc1-c1cc(NCCc2ccncc2)nc(N)n1` [Example 714, 6-(3-chloro-2-methyl-phenyl)-N4-[2-(4-pyridyl)ethyl]pyrimidine-2,4-diamine], the half-maximal inhibitory concentration (IC50) is below 200 nM.
`Cc1c(Cl)cccc1-c1cc(NCCc2ccccn2)nc(N)n1` [Example 715, 6-(3-chloro-2-methyl-phenyl)-N4-[2-(2-pyridyl)ethyl]pyrimidine-2,4-diamine]: the IC50 is below 200 nM.
On to `Cc1c(Cl)cccc1-c1cc(NC/C(=C\F)CCc2ccc(F)cc2)nc(N)n1` [Example 721, 6-(3-chloro-2-methyl-phenyl)-N4-[(2Z)-2-(fluoromethylene)-4-(4-fluorophenyl)butyl]pyrimidine-2,4-diamine], for which the concentration for half-maximal inhibition (IC50) is below 200 nM.
Consider `Cc1cc(C[S+]([O-])CCNc2cc(-c3cccc(Cl)c3C)nc(N)n2)no1` (stereo not drawn) [Example 725, 6-(3-chloro-2-methyl-phenyl)-N4-[2-[(5-methylisoxazol-3-yl)methylsulfinyl]ethyl]pyrimidine-2,4-diamine], for which the half-maximal inhibitory concentration (IC50) was in the range of 2000 to 10000 nM.
In the case of `Cc1c(Cl)cccc1-c1cc(NCCc2ccc(O)c(O)c2)nc(N)n1` [Example 727, 4-[2-[[2-amino-6-(3-chloro-2-methyl-phenyl)pyrimidin-4-yl]amino]ethyl]benzene-1,2-diol], the 50% inhibitory concentration (IC50) was below 200 nM.
`Cc1c(Cl)cccc1-c1cc(NCCc2cc(O)c(O)c(O)c2)nc(N)n1` [Example 728, 5-[2-[[2-amino-6-(3-chloro-2-methyl-phenyl)pyrimidin-4-yl]amino]ethyl]benzene-1,2,3-triol]: the IC50 was below 200 nM.
For `C=C(C)CNc1cc(-c2cccc(Cl)c2C)nc(N)n1` [Example 729, 6-(3-chloro-2-methyl-phenyl)-N4-(2-methylallyl)pyrimidine-2,4-diamine] the value was below 200 nM.
Consider `COC(=O)C1CCC(CNc2cc(-c3cccc(Cl)c3C)nc(N)n2)CC1` (stereo not drawn) [Example 731, methyl 4-[[[2-amino-6-(3-chloro-2-methyl-phenyl)pyrimidin-4-yl]amino]methyl]cyclohexanecarboxylate], for which the 50% inhibitory concentration (IC50) was below 200 nM.
`Cc1c(Cl)cccc1-c1cc(NCCc2cccnc2)nc(N)n1` [Example 733, 6-(3-chloro-2-methyl-phenyl)-N4-[2-(3-pyridyl)ethyl]pyrimidine-2,4-diamine]: the concentration for half-maximal inhibition (IC50) was below 200 nM.
Take `Cc1c(Cl)cccc1-c1cc(NCCc2cnccn2)nc(N)n1` [Example 735, 6-(3-chloro-2-methyl-phenyl)-N4-(2-pyrazin-2-ylethyl)pyrimidine-2,4-diamine]: the 50% inhibitory concentration (IC50) was below 200 nM.
Turning to `Cc1c(Cl)cccc1-c1cc(NCCc2ccc(Br)cc2)nc(N)n1` [Example 736, N4-[2-(4-bromophenyl)ethyl]-6-(3-chloro-2-methylphenyl)pyrimidine-2,4-diamine], the IC50 is below 200 nM.
For the molecule `Cc1c(Cl)cccc1-c1nc(N)nc2c1CCN2` [Example 742, 4-(3-chloro-2-methylphenyl)-5H,6H,7H-pyrrolo[2,3-d]pyrimidin-2-amine], the 50% inhibitory concentration (IC50) was below 200 nM.
On to `Cc1c(Cl)cccc1-c1nc(N)nc2c1C[C@@H](C)N2` [Example 743, (6R)-4-(3-Chloro-2-methylphenyl)-6-methyl-5H,6H,7H-pyrrolo[2,3-d]pyrimidin-2-amine], for which the IC50 was below 200 nM.
`Cc1c(Cl)cccc1-c1cc(NCCOc2ccc(Cl)cn2)nc(N)n1` [Example 746, 6-(3-chloro-2-methylphenyl)-N4-{2-[(5-chloropyridin-2-yl)oxy]ethyl}pyrimidine-2,4-diamine]: the half-inhibitory concentration (IC50) is below 200 nM.
Take `Cc1c(Cl)cccc1-c1cc(NCCOc2ccc(C#N)cc2)nc(N)n1` [Example 747, 4-(2-{[2-amino-6-(3-chloro-2-methylphenyl)pyrimidin-4-yl]amino}ethoxy)benzonitrile]: the 50% inhibitory concentration (IC50) was below 200 nM.
